Assay results taken from patent US12268747B2, “Polypeptides having anti-senescent effects and uses thereof” (OneSkin, Inc., priority 2019, dated 2025).
Peptide text beside a SMILES is read from it.

Experiments:
[1] = tested on: Human primary fibroblasts isolated from 3 healthy chronologically aged (elder) donors; assay: 3-week exposure: SA-β-galactosidase senescence and proliferation; assay type: cell-based; settings: 3.12 μM, counted at days 7, 14, 21, 28
Description: Human primary fibroblasts isolated from 3 healthy chronologically aged (elder) donors were used. These cells were cultured in DMEM (Dulbecco's Modified Eagle's Medium) supplemented with 10% v.v. fetal bovine serum (FBS), and 1% v.v. of penicillin/streptomycin solution (1,000 U·mL−1). Cells were kept in a 5% CO2, 37° C. and 95% humidity atmosphere. After expansion, these cells were seeded in T-75 flasks (250,000 cells per flask) and, 6 hours after plating, were incubated for 3 weeks (21 days) with Peptide 14 at 3.12 μM. A negative control comprised untreated cells, which received vehicle only. Day 0 was defined as the day cells started to be treated with Peptide 14. No Peptide 14 treatment was performed between days 21 and 28. Weekly, cellular senescence was assessed according to senescence associated β-galactosidase staining levels. Data was normalized to untreated group and plotted (FIG. 4, panel A). Cellular proliferation was also determined weekly. At days 7, 14, 21, and 28, cells were trypsinized and counted (FIG. 4, panel B). After counting, 250,000 cells were plated in new T-75 flasks. Three independent experiments (biological replicates) including three technical replicates were performed. Data was analyzed using T-test. Statistical significance was determined as p values equal or lower than 0.05.

[2] = tested on: human primary fibroblasts isolated from 3 healthy donors, UVB exposed; assay: UVB-induced senescence in fibroblasts; assay type: cell-based; settings: 5 μM, 48 hours after UVB
Description: Cellular senescence may be caused by several different stimuli. In order to assess whether Peptide 14 was effective against UVB-induced and chemically-induced senescence, human primary fibroblasts isolated from 3 healthy donors were used. These cells were cultured in DMEM (Dulbecco's Modified Eagle's Medium) supplemented with 10% v.v. fetal bovine serum (FBS), and 1% v.v. of penicillin/streptomycin solution (1,000 U·mL−1). Cells were kept in a 5% CO2, 37° C. and 95% humidity atmosphere. After expansion, these cells were seeded in 96-well plates (4,000 cells per well) and, 6 hours after plating, were submitted to either etoposide (20 μM) treatment for 24 hours, or exposed twice to 0.05 J/cm^2 of UVB radiation. […] After incubation, relative cellular senescence (assessed by the activity of senescence associated β-galactosidase staining relative to untreated control) was analyzed and plotted in column graphs. ATRX foci were also assessed following ATRX immunofluorescence staining. Graphs were built using the average ATRX foci detected per nuclei. […] Data was analyzed using with either t-test or ANOVA followed by a Bonferroni post-hoc test. Statistical significance was determined as p-values equal or lower than 0.05 (FIG. 6).

Caenorhabditis elegans = assay: C. elegans healthspan and lifespan; assay type: in vivo; settings: 1 μM and 2 μM, no decrease in worm movement at either time point
Description: Senotherapeutic strategies can be linked to healthspan and lifespan extension in vivo. In order to assess whether Peptide 14 promotes extended healthspan and lifespan, Caenorhabditis elegans worms were used. Peptide 14 was added in the worm media (M9 buffer media) at different concentrations of 1 μM or 2 μM. Negative control worms received vehicle only. Two healthspan parameters were assessed i) pharyngeal pumping and ii) worm movement. Lifespan was also determined. For pharyngeal pumping analysis, 15 worms had their pharynx movement (pumping) observed daily and counted for 20 seconds. This experiment was repeated 3 times, by 2 different blind observers, employing different populations of animals at different days. Statistical difference was detected by analyzing each individual time point by One-Way ANOVA and Dunnet's post hoc test. All groups were compared with the H2O group. For worm movement analysis, the basic movement of C. elegans, also called thrashing, was measured daily for 15 worms. […] Statistical difference was detected by analyzing each individual time point by One-Way ANOVA and Dunnet's post hoc, and all groups were compared with the H2O group. […] The average lifespan was measured. Statistical difference was detected by analyzing each individual time point by One-Way ANOVA and Dunnet's post hoc, and all groups were compared with the H2O group (FIG. 18).

[3] = tested on: Primary fibroblasts isolated from 3 healthy chronologically aged patients; assay: SA-B-galactosidase senescence in fibroblasts of aged donors, concentration series; assay type: cell-based, human; settings: 1.56-50 μM (Peptide 16: 1.56-25 μM), 48 hours; in at least one of the tested concentrations
Description: Primary fibroblasts isolated from 3 healthy chronologically aged patients were used. Cells were cultured in DMEM (Dulbecco's Modified Eagle's Medium) supplemented with 10% v.v. fetal bovine serum (FBS), and 1% v.v. of penicillin/streptomycin solution (1,000 U·mL−1). Cells were kept in a 5% CO2, 37° C. and 95% humidity atmosphere. After expansion, these cells were seeded in 96-well plates (4,000 cells per well) and, 6 hours after plating the cells were treated with one of 4 senotherapeutic polypeptides (Peptide 14, Peptide 13, Peptide 15, and Peptide 16) and incubated for 48 hours. Each polypeptide was tested at 6 different concentrations: 50 μM, 25 μM, 12.5 μM, 6.25 μM, 3.12 μM, and 1.56 μM, except for Peptide 16, which was tested at 5 different concentrations: 25 μM, 12.5 μM, 6.25 μM, 3.12 μM, and 1.56 μM. A negative control comprised untreated cells, which received vehicle only. After incubation, relative cellular senescence (assessed by the activity of senescence associated B-galactosidase staining relative to untreated control) was analyzed (FIG. 2, panels A-D), in which the Y axis indicates the relative senescence levels normalized to untreated control. Each column corresponds to a different concentration of a polypeptide. Three independent experiments (biological replicates) including three technical replicates were performed. Data was analyzed using Analysis of Variance (ANOVA) and a Bonferroni post-hoc tests. Statistical significance was determined as p values equal or lower than 0.05.

pAkt S473 = assay: Akt S473 phosphorylation western blot in human skin equivalents; assay type: cell-based; settings: 1 μM, 5 days
Description: (§1) In order to shed light into the mechanism of action of Peptide 14 and similar Peptide 13, Akt S473 phosphorylation (FIG. 8, panel A), senescence associated β-galactosidase staining (FIG. 8, panel B), as well as mRNA expression (FIG. 8, panel C) were investigated. For Akt S473 phosphorylation analysis using western blotting, human primary fibroblasts and keratinocytes were used. These cells were used to build human skin equivalents, which were kept in a 5% CO2, 37° C. and 95% humidity atmosphere air liquid interface. Then, skin equivalents were treated with 1 μM of either Peptide 14 or Peptide 13 for 5 days, and protein analysis was performed on the skin equivalents. Protein was isolated and quantified. Equal amounts of protein were loaded in polyacrylamide gels and transferred into a nitrocellulose membrane. […] Relative pAkt S473/GAPDH signal was compared between treated and non-treated samples. For senescence associated B-galactosidase staining experiments, fibroblasts were used. […] Total RNA was isolated, samples were reverse transcribed, and mRNA expression of GAPDH, sirtuin 6 (SIRT6), BLM, and exonuclease 1 (EXO1) genes were determined using qPCR. […] CT values were analyzed using the 2^−ΔΔCt method. […] Data was analyzed using a T-test. Statistical significance was determined as p values equal or lower than 0.05 (FIG. 8).

fibroblasts, UVB exposed = assay: SA-B-galactosidase staining in UVB-exposed fibroblasts (Example 8); assay type: cell-based, human; settings: 48 hours after UVB 2 x 0.05 J/cm^2
Description: as §1

[4] = tested on: human skin equivalents from elder donors; assay: Human skin equivalents: histology score and morphology (Example 18); assay type: cell-based; settings: 0.01% w/v (or 1 μM), 5 days; vehicle control 21.00
Description: To test the effect of Peptide 13 and Peptide 14 treatment on human skin models and the skin morphology, human primary fibroblasts and keratinocytes isolated from healthy elder donors were used to build human skin equivalents. The skin equivalents were treated with 0.01% w/v (or 1 μM) of Peptide 13 or Peptide 14 for 5 days. The negative controls were treated with formulation only. After the 5-day culture, the skin equivalents were analyzed for epidermal thickness, which was quantified according to total epidermal area. Quality assessment based several parameters was performed by blind analysts. […] A minimal score of 19 was required for batch use. This score was validated internally and shown to decrease with age/senescence of the skin equivalents or cultured cells. Three independent experiments were performed with three technical replicates. Data were analyzed using a t-test. Statistical significance was determined as p-values equal or lower than 0.05. The statistically significant p-values are noted by * for p<0.05; ** for p<0.01; *** for p<0.001; **** for p<0.0001 between the groups.

[5] = tested on: p16, BLIMP1, ZYG11B, IL-8, Ki-67, ZIC1, MMP1, HAS2 mRNA in 3D skin equivalents; assay: 3D skin equivalents: relative mRNA expression of senescence, aging and health markers; assay type: cell-based, human
Description: 3D skin equivalent sections of samples built with cells from elder donors ([…]) were treated with 1 μM Peptide 14 or Peptide 13, or 20 μM Retinoic Acid (RA) and assessed for the effect of the various treatments of various markers of senescence, aging, and health.
Data are presented as 2-ddCt normalized to GAPDH and untreated control. *p<0.05. Peptide 13 and Peptide 14-treated samples generally had similar relative mRNA expression levels for p16, BLIMP1, ZYG11B, IL-8, and Ki-67 in the epidermal layer, and for p16, MMP1, HAS2, IL-8, and Ki-67 in the dermal layer. Peptide 13 and Peptide 14-treated samples generally had lower relative mRNA expression levels than RA-treated samples for p16, BLIMP1, ZYG11B, IL-8, in the epidermal layer and for p16, MMP1, IL-8, and Ki-67 in the dermal layer. Peptide 13 and Peptide 14-treated samples generally had higher relative mRNA expression levels than RA-treated samples for Ki-67 in the epidermal layer and for HAS2 for the dermal layer. Peptide 13 and Peptide 14-treated samples had similar relative mRNA expression levels as RA-treated samples for ZIC1 and Ki-67 for dermal layer.

[6] = 1 μM peptide vs 20 μM Retinoic Acid

relative cellular senescence (SA-B-galactosidase staining) vs untreated control [3]	SA-B-galactosidase staining in UVB-exposed samples (fibroblasts, UVB exposed)	relative mRNA, Peptide 13 vs Peptide 14: p16, BLIMP1, ZYG11B, IL-8, Ki-67 (epidermal); p16, MMP1, HAS2, IL-8, Ki-67 (dermal) ([5]; 1 μM each)	relative mRNA vs RA-treated samples: Ki-67 (epidermal), HAS2 (dermal) [5, 6]	relative mRNA vs RA-treated samples: ZIC1 and Ki-67 (dermal) [5, 6]	relative mRNA vs RA-treated samples: p16, BLIMP1, ZYG11B, IL-8 (epidermal); p16, MMP1, IL-8, Ki-67 (dermal) [5, 6]	Compound	cell proliferation vs untreated control [1]	cell number [2]	toxicity to C. elegans (worm movement) (Caenorhabditis elegans)	pAkt S473 in dermal samples (pAkt S473)	pAkt S473 in epidermal samples (pAkt S473)	mean of histology scores (maximum 28) [4]
						CC[C@H](C)[C@H](NC(=O)CNC(=O)[C@H](CCCCN)NC(=O)[C@H](CC(C)C)NC(=O)[C@H](Cc1c[nH]c2ccccc12)NC(=O)[C@H](Cc1c[nH]cn1)NC(=O)[C@H](CCCCN)NC(=O)[C@H](C)NC(=O)[C@@H](NC(=O)[C@@H](N)CCC(=O)O)[C@@H](C)O)C(=O)O [Peptide 14, ETAKHWLKGI] (H-ETAKHWLKGI-OH; N-terminus and C-terminus assumed)	No significant differences	did not significantly alter	not toxic			
senotherapeutic effects	decreased staining	similar	higher	similar	lower	ATAKAWLKGI [Peptide 13]				decreased	dermal samples only	23.44
